Data as given in PubChem BioAssay (NCI).
Several values for one entry are separate records, joined by “and”; a condition that tells them apart may be missing. Equal entries are not always repeated.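 Step 1: Grow cells in 96-well plates. Step 2: Expose to compound for 48 hours at 5 concentrations. Step 3: Interpolate endpoints linearly; if unreached, use highest concentration. At the GI50, growth is halved. TGI is the concentration that stops growth completely.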

Experiments:
Test in all cases: NCI tumour cell line growth inhibition, 48 h
HCT-15 colon = test system: HCT-15 colon
K-562 leukemia = test system: K-562 leukemia
KM12 colon = test system: KM12 colon
SF-539 CNS = test system: SF-539 CNS
M14 melanoma = test system: M14 melanoma
SNB-75 CNS = test system: SNB-75 CNS
786-0 renal = test system: 786-0 renal
LXFL 529 NSCLC = test system: LXFL 529 NSCLC
HOP-18 NSCLC = test system: HOP-18 NSCLC

| SMILES | TGI (HCT-15 colon) | TGI (K-562 leukemia) | TGI (KM12 colon) | TGI (SF-539 CNS) | TGI (M14 melanoma) | TGI (SNB-75 CNS) | TGI (786-0 renal) | TGI (LXFL 529 NSCLC) | TGI (HOP-18 NSCLC) | GI50 (KM12 colon) | GI50 (M14 melanoma) | GI50 (786-0 renal) |
| --- | --- | --- | --- | --- | --- | --- | --- | --- | --- | --- | --- | --- |
| O=C(O)c1ccccc1NC(=O)C1CCCCC1 | > 100 µM | > 100 µM | > 100 µM | > 100 µM | > 100 µM | > 100 µM | > 100 µM | > 100 µM |  |  |  |  |
| c1ccc2c(c1)C1=NCCN1c1ccccc1-2 | 12.2 µM |  | 14.6 µM | 9.69 µM | 13.3 µM | 14.4 µM | 10 µM | 13 µM | 9.19 µM |  |  |  |
| O=C(CC1C(=O)Nc2ccccc2S1=O)Nc1ccc(Cl)cc1 (configuration not stated) | > 100 µM | > 100 µM | > 100 µM | 51.1 µM | > 100 µM | > 100 µM | > 100 µM | > 100 µM |  |  |  |  |
| COC1OC2COC(c3ccccc3)OC2C(O)C1Br (configuration not stated) | > 100 µM | > 100 µM | > 100 µM | > 100 µM | > 100 µM |  | > 100 µM | > 100 µM | > 100 µM |  |  |  |
| O=C1C=CC(CC(=O)c2ccc3ccccc3c2)O1 (configuration not stated) | 50.4 µM | > 100 µM | 31.4 µM | 33.2 µM | 93.9 µM | 91.2 µM | 39.1 µM | 32.3 µM | > 100 µM |  |  |  |
| CC12Oc3ccc4ccccc4c3CC1Cc1c(ccc3ccccc13)O2 (configuration not stated) |  |  | > 100 µM | > 100 µM | > 100 µM | 41.3 µM | > 100 µM | > 100 µM | 98.7 µM |  |  |  |
| C[C@H]1C(=O)CC[C@]2(C)CCC(C(C)(C)O)CC12O (some centres not stated) | > 100 µM | > 100 µM | > 100 µM | > 100 µM | > 100 µM | > 100 µM | > 100 µM | > 100 µM | > 100 µM |  |  |  |
| O=[N+]([O-])c1ccc(Cl)cc1C1SCc2nc3ccccc3n21 (configuration not stated) | > 100 µM | > 100 µM | > 100 µM | > 100 µM | > 100 µM | 70.7 µM | > 100 µM | > 100 µM | > 100 µM |  |  |  |
| O=S(=O)(C/C(=N\O)c1ccccc1)c1ccccc1 | > 100 µM | > 100 µM | > 100 µM | > 100 µM | > 100 µM | > 100 µM | > 100 µM | > 100 µM | > 100 µM |  |  |  |
| Cc1cc2c(C)n(Cc3ccc(Cl)cc3Cl)nc2c(C(=O)O)c1C | > 100 µM |  |  | > 100 µM |  | > 100 µM | > 100 µM | > 100 µM | > 100 µM |  |  |  |
| O=C1c2nc3n(c2C(=O)c2c1nc1n2CCC1)CCC3 | 19.2 µM | > 57.8 µM | 17 µM | 8.77 µM and 13.5 µM | 4.65 µM | 28.9 µM | > 47.8 µM | 21.5 µM | 27.2 µM | 5.63 µM | 4.88 µM | 9.25 µM |
| Cc1ccccc1-n1c(C)nc(-c2ccccc2)cc1=O | > 100 µM | > 100 µM | > 100 µM | > 100 µM | > 100 µM | > 100 µM | > 100 µM | > 100 µM | > 100 µM |  |  |  |
